According to PMC6268528, “3-Phenylcoumarins as Inhibitors of HIV-1 Replication” (Molecules, 2012):
Read-outs that look alike come from different tables or passages of the source.

Key:
NF-κB [1] = assay: 5.1 cell line + TNFα, HIV-LTR luciferase (NF-κB activation); format: cell-based; details: for inhibition at 50 µM: read-out: Antiviral activity 5.1 + TNFα 50 µM (inhibition of NF-κB function); for specificity of NF-κB inhibition, in words: with HeLa-Tet-ON evaluation; for inhibition at 25 µM: read-out: Antiviral activity 5.1 + TNFα 25 µM (inhibition of NF-κB function)
Excerpt: (§1) In the characterization of anti-HIV activity, the effect of these coumarins on Tat and NF-κB functions has been evaluated in a similar manner as we described in a previous publication. We have used two transfected 5.1 cell lines, in which we measured NF-κB activation induced by TNFα [42] and HeLa-Tat-Luc cells, in which the HIV-1 LTR is directly activated by the HIV-1 Tat protein. Most of the compounds were submitted for further evaluation through a HeLa-Tet-ON assay in order to determine the selectivity of their action. To avoid missing compounds acting through another mechanism, all substances were also evaluated using a recombinant virus (RV) assay. In this system, a luciferase reporter gene was cloned in full-length infectious DNA. As a result, the measured luciferase activity is therefore proportional to viral replication.
(§2) The anti-HIV activity of these coumarins on Tat and NF-κB functions has been analysed. To this aim, we have used two stably transfected cell lines. The previously described 5.1 cell line is a Jurkat-derived clone stably transfected with a plasmid containing the luciferase gene under the control of HIV-LTR. In this cell clone, activation with TNFα induces NF-κB activation and subsequent HIV-1 expression. We have also analyzed the anti-HIV activity in HeLa-Tat-Luc cells, in which the HIV-1 LTR is directly activated by the HIV-1 Tat protein. A compound was considered active in one assay if it inhibited the target function by more than 50% (NF-κB) or 30% (Tat) at either 25 or 50 μM concentration. The active compounds were submitted for further evaluation through a HeLa-Tet-ON assay, as previously described. In the Hela-Tet-ON cells the luciferase expression is under control of an artificial promoter that can be activated by tetracycline. Therefore, compounds that inhibit tetracycline-induced luciferase activity were considered non-specific for luciferase-based anti-HIV assays and were not examined further, and those showing specific activity (non-inhibitors in HeLa-Tet-ON cells) were analysed using a recombinant virus (RV) assay. […] In this system, a luciferase reporter gene has been cloned in full-length infectious DNA. The measured luciferase activity is therefore directly proportional to the replication of the virus. This assay is more sensitive and reliable than classic infectious assays. Cell viability was evaluated in non-infected treated cultures following the same protocol as in the recombinant virus assay and measuring cell toxicity with a classical MTT assay. IC50 and CC50 were calculated using GraphPad Prism software [non-linear regression, log (inhibitor) vs. response].

non-infected MT-2 cells [2] = assay: Cell viability, MTT assay in non-infected treated cultures; format: cell-based; parameters: Toxicity (%) CC50: unit not given here
Excerpt: as §2

[3] = system: tetracycline-induced luciferase activity in HeLa-Tet-ON cells; assay: HeLa-Tet-ON specificity assay; format: cell-based; parameters: key: S: specific; U: unspecific modes of action
Excerpt: as §1, §2

HIV-1 [4] = assay: Recombinant virus (RV) assay, luciferase reporter virus on MT-2 cells; format: cell-based; details: for rank as inhibitor of HIV replication, in words: RV assay; for fold lesser potent than 11 in the RV assay: relative to compound 11
Procedure: We have synthesized fourteen 3-phenylcoumarin derivatives and evaluated their anti-HIV activity. Antiviral activity was assessed on MT-2 cells infected with viral clones carrying the luciferase gene as reporter. Inhibition of HIV transcription and Tat function were tested on cells stably transfected with the HIV-LTR and Tat protein. […] The antiviral effect of the 4-hydroxycoumarin derivative 19 correlates with its specific inhibition of Tat functions, while compound 8, 3-(2-chlorophenyl)coumarin, seems to act through a mechanism unrelated to the molecular targets considered in this research.
as §1, §2

HIV-1 Tat protein [5] = assay: HeLa-Tat-Luc cells, HIV-1 LTR activated by Tat; format: cell-based; details: for inhibition at 50 µM: Human immunodeficiency virus 1, read-out: Antiviral activity Hela-Tat-luc 50 µM (inhibition of Tat function); for anti-Tat activity and specificity, in words: HeLa-Tat-Luc and Hela-Tet-ON assays; for inhibition at 25 µM: Human immunodeficiency virus 1, read-out: Antiviral activity Hela-Tat-luc 25 µM (inhibition of Tat function)
Excerpt: as §1, §2

[6] = system: tetracycline-induced luciferase activity in HeLa-Tet-ON cells; parameters: method as in PMID 15911030; key: S: specific; U: unspecific modes of action; details: comparison data; cited from earlier work
HIV-1 Tat protein [7] = system: HIV-1 Tat protein; parameters: method as in PMID 15911030; details: comparison data; cited from earlier work
NF-κB [8] = system: NF-κB; parameters: method as in PMID 15911030; details: comparison data, cited from earlier work
HIV-1 [9] = system: HIV-1; parameters: method as in PMID 15911030; details: comparison data; read-out: RV (VIH) IC50; cited from earlier work
non-infected MT-2 cells [10] = system: non-infected MT-2 cells; parameters: method as in PMID 15911030; details: comparison data; read-out: Toxicity CC50; cited from earlier work
[11] = Human immunodeficiency virus 1, MT2, read-out: RV (VIH) IC50

Row | SMILES | inhibitory activity in the NF-κB test, in words (NF-κB [1]; 50 µM) | inhibition at 50 µM (NF-κB [1]) [%] | Toxicity (%) CC50 (non-infected MT-2 cells [2]; MTT, non-infected cultures) | HeLa-Tet-ON 50 µM (specific / unspecific mode of action) [3] | IC50 (HIV-1 [4]; [11]) [µM] | inhibition at 50 µM (HIV-1 Tat protein [5]) [%] | melting point [°C] | inhibition at 25 µM (HIV-1 Tat protein [5]) [%] | also measured
1 | O=c1oc2cc(O)ccc2cc1-c1ccccc1 [Compound 16, 7-Hydroxy-3-phenyl-2H-chromen-2-one] | fair inhibitory activity | 59 ± 8.2 | >50 | S | 81.4 ± 14 | 17.2 ± 0.5 |  |  | specificity of NF-κB inhibition, in words (NF-κB [1]): specific inhibitors of the NF-κB function
2 | CSc1ccc(-c2cc3ccccc3oc2=O)cc1 [Compound 11, 3-(4-Methylsulfanylphenyl)-2H-chromen-2-one] | fair inhibitory activity | 81.6 ± 5.6 | >50 | U | 18.2 ± 0.2 | 80.1 ± 5.6 | 157 to 159 | 77.5 ± 8.5 | inhibitory activity in the NF-κB test, in words (NF-κB [1]; 25 μM): confirmed; inhibition at 25 µM (NF-κB [1]): 84.3 ± 3%; rank as inhibitor of HIV replication, in words (HIV-1 [4]): most potent inhibitor of HIV replication; anti-Tat activity and specificity, in words (HIV-1 Tat protein [5]): potent though unspecific anti-Tat activity
3 | O=c1oc2ccccc2cc1-c1ccc(Cl)cc1Cl [Compound 12, 3-(2,4-Dichlorophenyl)-2H-chromen-2-one] |  | -40.9 ± 2.3 | >50 | S | > 172 | 14.1 ± 0.6 | 226 to 228 |  | 
4 | COc1ccc(-c2cc3ccccc3oc2=O)cc1OC [Compound 14, 3-(3,4-Dimethoxyphenyl)-2H-chromen-2-one] |  | -23 ± 2.9 | >50 |  | > 177 | -25.1 ± 5.3 | 127 to 129 |  | 
5 | O=c1oc2ccccc2cc1-c1ccc(Cl)cc1 [Compound 9, 3-(4-Chlorophenyl)-2H-chromen-2-one] |  | 33 ± 2.33 | >50 |  | > 195 | -4.9 ± 0.8 | 190 to 192 |  | 
6 | O=c1oc2ccccc2cc1-c1ccccc1 [Compound 7, 3-Phenyl-2H-chromen-2-one] |  | 21.7 ± 3 | >50 | S | 130 ± 11.4 | 33.7 ± 1 |  | 26.8 ± 2.9 | 
7 | COc1ccc2c(O)c(-c3ccccc3)c(=O)oc2c1 [Compound 19, 4-Hydroxy-7-methoxy-3-phenyl-2H-chromen-2-one] |  | -4.7 ± 0.3 | >50 | S | 23.8 ± 1.7 | 55.7 ± 4.9 | 217 to 219 | 48.9 ± 3.4 | inhibition at 25 µM (NF-κB [1]): -34.3 ± 5%; anti-Tat activity and specificity, in words (HIV-1 Tat protein [5]): modest, but specific inhibition
8 | COc1cc(-c2cc3ccccc3oc2=O)cc(OC)c1OC [Compound 15, 3-(3,4,5-Trimethoxyphenyl)-2H-chromen-2-one] | fair inhibitory activity | 49.7 ± 7 | 42.8 ± 16.2 | U | 62.7 ± 13.1 | 35.1 ± 3.9 | 122 to 124 | 47.6 ± 6.2 | specificity of NF-κB inhibition, in words (NF-κB [1]): unspecific
9 | COc1ccc(-c2cc3cccc(O)c3oc2=O)cc1 [Compound 17, 8-Hydroxy-3-(4-methoxyphenyl)-2H-chromen-2-one] | fair inhibitory activity | 87.8 ± 9.8 | >50 | U | 84.6 ± 12.1 | 88.3 ± 5.5 |  | 85.7 ± 3.4 | inhibitory activity in the NF-κB test, in words (NF-κB [1]; 25 μM): confirmed; inhibition at 25 µM (NF-κB [1]): 82.2 ± 3.1%; fold lesser potent than 11 in the RV assay (HIV-1 [4]): 4-5 fold; anti-Tat activity and specificity, in words (HIV-1 Tat protein [5]): potent though unspecific anti-Tat activity
10 | Cc1cn([C@H]2C[C@H](N=[N+]=[N-])[C@@H](CO)O2)c(=O)[nH]c1=O [AZT, reference compound] |  |  |  |  |  |  |  |  | CC50 (non-infected MT-2 cells [2]; comparison drug, read-out: Toxicity CC50): > 1 µM; IC50 (HIV-1 [4]; recombinant virus, luciferase, read-out: RV (VIH) IC50): 0.01 µM
11 | O=c1oc2ccccc2cc1-c1ccccc1Cl [Compound 8, 3-(2-Chlorophenyl)-2H-chromen-2-one] |  | -28.7 ± 4 | >50 | S | 20.7 ± 1.9 | 17.6 ± 2.1 | 186 to 188 |  | rank as inhibitor of HIV replication, in words (HIV-1 [4]): second more potent replication inhibitor
12 | O=c1oc2ccccc2cc1-c1ccc2c(c1)OCO2 [Compound 13, 3-(Benzo[d][1,3]dioxol-5-yl)-2H-chromen-2-one] | fair inhibitory activity | 68.5 ± 3.4 | 16.7 ± 3.4 | S | 138 ± 22.3 | 39.5 ± 2.3 | 168 to 170 | 32.8 ± 4.3 | specificity of NF-κB inhibition, in words (NF-κB [1]): specific inhibitors of the NF-κB function
13 | CC(C)=CCc1c(O)c(C(=O)C(C)C)c(O)c2c(-c3ccccc3)cc(=O)oc12 [Mesuol] |  |  |  |  |  |  |  |  | HeLa-Tet-ON 50 µM (specific / unspecific) [6]: S; Antiviral activity Hela-Tat-luc 50 µM (HIV-1 Tat protein [7]): 71.3 ± 8.9%; Antiviral activity 5.1 + TNFα 25 µM (NF-κB [8]; 25 µM): 71.0 ± 4.8%; Antiviral activity 5.1 + TNFα 50 µM (NF-κB [8]; 50 µM): 77.9 ± 4.9%; IC50 (HIV-1 [9]): 2.5 µM; CC50 (non-infected MT-2 cells [10]): > 4 µM
14 | COc1ccc2oc(=O)c(-c3ccccc3)c(O)c2c1 [Compound 18, 4-Hydroxy-6-methoxy-3-phenyl-2H-chromen-2-one] |  |  |  | S | 186 ± 10.8 | 22.8 ± 3.4 |  |  | inhibition at 50 µM (NF-κB [1]; 50 µM, 5.1 Jurkat-derived cells, TNFα): -3.5 ± 0.9%; Toxicity (%) CC50 (non-infected MT-2 cells [2]; human): >50
15 | COc1ccc(-c2cc3ccccc3oc2=O)cc1 [Compound 10, 3-(4-Methoxyphenyl)-2H-chromen-2-one] | fair inhibitory activity | 61.2 ± 2.4 |  | U | 73 ± 8.6 | 66.6 ± 3.4 | 141 to 143 | 73.5 ± 6.7 | fold lesser potent than 11 in the RV assay (HIV-1 [4]): 4-5 fold; anti-Tat activity and specificity, in words (HIV-1 Tat protein [5]): potent though unspecific anti-Tat activity
16 | COc1ccc2c(Cl)c(-c3ccccc3)c(=O)oc2c1 [Compound 20, 4-Chloro-7-methoxy-3-phenyl-2H-chromen-2-one] |  | -21.2 ± 7 | 18.4 ± 8.2 |  | > 209 | -64.4 ± 10 |  |  | 
